According to patent US6710165B2, “IgE-dependent histamine-releasing factor-binding peptides” (priority 2000, dated 2004):

Key:
malaria protein HRF = malaria protein HRF (Plasmodium falciparum, UniProt Q8I3Z5); conditions: cited from earlier work
RBL-2H3 cells = assay: Inhibition of histamine release by HRF (RIA); assay type: cell-based; conditions: for effect on histamine release by HRF: peptide 20 μg/ml, HRF 20 μg/ml
Procedure: The full-length rat HRF sequence (Chitpatima, et al., 1988) amplified by PCR was cloned in pRSET-A vector and overexpressed in E. coli. The expressed recombinant protein was purified by His-bound Ni column (Novagen) and used for the stimulation of RBL-2H3 cells. RBL-2H3 cells were grown in 24-well plate at 1×10^6 cells, sensitized with rat IgE antibodies (0.2 μg/ml, Serotec) for 45˜60 minutes and then, treated with 20 μg/ml of the recombinant HRF protein (positive control). The cells as prepared above were dose-dependently treated with heptamer peptides p1 and p2. Also, they were treated with the recombinant HRF protein and peptides p1, p2, p4 and m1 to m7 at the same concentration as that of HRF, i.e. 20 μg/ml, respectively,
The obtained sample was prepared to acylated histamine using RIA-analysis kit (Immunotech, France) and then, competitively bound to ^125I-acylated histamine and monoclonal antibodies. This sample was reanalyzed in γ-counter.

HRF = target: T1, HRF (Rattus norvegicus, UniProt P63029); assay: Competition binding assay of synthetic peptides against phage clones; conditions: for binding site on HRF, competitive binding analysis on ph2: competition with ph2; for competition of synthetic peptide with phage clones for HRF: peptide 0.001-1000 nM, phage 1/25-fold diluted
T1 construct: His tag (pRSET-A); made in house; host or cells: E. coli
T1 sequence (P63029 1-172): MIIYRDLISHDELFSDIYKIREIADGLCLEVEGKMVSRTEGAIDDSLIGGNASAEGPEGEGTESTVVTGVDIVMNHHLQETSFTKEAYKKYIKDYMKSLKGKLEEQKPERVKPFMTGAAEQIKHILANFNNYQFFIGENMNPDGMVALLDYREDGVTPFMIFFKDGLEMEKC
Procedure: Also, as a negative control, random peptide (ran, amino acid sequence: LMEGCRA) was synthesized. To the wells coated with HRF was added each 30 μl of the peptide solution serially diluted in 6% BSA/PBS from 1000 nM (1000, 100, 10, 1, 0.1, 0.01, 0.001 nM) and the solution was allowed to stand at room temperature for 30 minutes. The 1/25-fold diluted phage solution was added thereto and the whole solution was further allowed to stand for 2 hours. The solution was washed five times with PBST and then, each 100 μl of HRP-conjugated anti-M13 antibodies were added thereto and then, the resulting mixture was allowed to stand for 1 hour. The mixture was washed 6 times with PBST and once with PBS, and thereto was added each 100 μl of peroxydase substrate solution to examine the competition.
b) In order to test whether or not p1, p2 and p4 bind to the identical site on HRF, the wells were coated with HRF according to the substantially same procedure as in the above a).

PC12 cells = assay: Inhibition of HRF-stimulated dopamine release by HRF-binding peptide; assay type: cell-based; conditions: 60 μg/ml of p2, 15 μg/ml of HRF
Procedure: In order to confirm whether the peptides blocking histamine release by HRF also block neurotransmitters release in nerve cells, the peptide of SEQ ID No. 14 (p2) was tested for its effects on dopamine release stimulated by HRF according to the substantially same procedure as in Example 16.

Chain of malaria protein HRF (Q8I3Z5 whole entry): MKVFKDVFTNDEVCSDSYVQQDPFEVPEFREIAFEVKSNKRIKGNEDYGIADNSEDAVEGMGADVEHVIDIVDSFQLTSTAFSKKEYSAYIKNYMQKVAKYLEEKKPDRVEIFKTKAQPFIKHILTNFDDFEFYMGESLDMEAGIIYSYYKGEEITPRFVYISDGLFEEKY

Q: For `C[C@@H]1CC[C@H]2[C@@H](C)C(=O)O[C@@H]3O[C@@]4(C)CC[C@@H]1[C@]32OO4` [Artemisinin], which “binding to malaria protein HRF” value (malaria protein HRF) is on record?
A: Its value is “binds to malaria protein HRF”.

Q: For “AYVYPSM (OTHER INFORMATION: IgE-dependent histamine-releasi ng factor binding peptide) [m1, p2 variant, alanine substitution]”, which “effect on histamine release by HRF” value (RBL-2H3 cells) is on record?
A: The value was “inhibited histamine release by HRF”.

Q: Which “effect on histamine release by HRF” value (RBL-2H3 cells) does the source give for “LVTYPLP (OTHER INFORMATION: IgE-dependent histamine-releasi ng factor binding peptide) [p1]” here?
A: Its value is “inhibited histamine release by HRF”.

Q: And the “binding site on HRF, competitive binding analysis on ph2” value (HRF)?
A: Its value is “bound to the identical site on HRF”.

Q: Which “effect on histamine release by HRF” value (RBL-2H3 cells) does the source give for “WAVYPSM (OTHER INFORMATION: IgE-dependent histamine-releasi ng factor binding peptide) [m2, p2 variant, alanine substitution]” here?
A: The value was “inhibited histamine release by HRF”.

Q: Which results are given for “WEFPGWM (OTHER INFORMATION: IgE-dependent histamine-releasi ng factor binding peptide) [p4]”?
A: effect on histamine release by HRF (RBL-2H3 cells): inhibited histamine release by HRF; binding site on HRF, competitive binding analysis on ph2 (HRF): bound to the identical site on HRF; competition of synthetic peptide with phage clones for HRF (HRF): bind to HRF competitively with phage clones ph2 and ph4

Q: With “WYAYPSM (OTHER INFORMATION: IgE-dependent histamine-releasi ng factor binding peptide) [m3, p2 variant, alanine substitution]” as the molecule, how does the “effect on histamine release by HRF” value (RBL-2H3 cells) read?
A: The value was “inhibited histamine release by HRF”.

Q: With “WYVAPSM (OTHER INFORMATION: IgE-dependent histamine-releasi ng factor binding peptide) [m4, p2 variant, alanine substitution]” as the molecule, how does the “effect on histamine release by HRF” value (RBL-2H3 cells) read?
A: Its value is “inhibited histamine release by HRF”.

Q: With “WYVYKSM (OTHER INFORMATION: IgE-dependent histamine-releasi ng factor binding peptide) [m5, p2 variant, substituted with Lysine (K)]” as the molecule, how does the “effect on histamine release by HRF” value (RBL-2H3 cells) read?
A: Its value is “inhibited histamine release by HRF”.

Q: With “WYVYPAM (OTHER INFORMATION: IgE-dependent histamine rele asing factor binding peptide) [m6, p2 variant, alanine substitution]” as the molecule, how does the “effect on histamine release by HRF” value (RBL-2H3 cells) read?
A: Its value is “conversely stimulated histamine release”.

Q: Which “effect on histamine release by HRF” value (RBL-2H3 cells) does the source give for “WYVYPSA [m7, p2 variant, alanine substitution]” here?
A: Its value is “inhibited histamine release by HRF”.

Q: For “WYVYPSM (OTHER INFORMATION: IgE-dependent histamine-releasi ng factor binding peptide) [p2]”, which “peptide concentration that inhibited histamine release” value (RBL-2H3 cells; dose-response, 20 μg/ml HRF) is on record?
A: The value was at least 0.01 µg/mL.

Q: What about the “effect on histamine release by HRF” value (RBL-2H3 cells) of the same molecule?
A: Its value is “inhibited histamine release by HRF”.

Q: And the “binding site on HRF, competitive binding analysis on ph2” value (HRF)?
A: Its value is “bound to the identical site on HRF”.

Q: What about the “competition of synthetic peptide with phage clones for HRF” value (HRF) of the same molecule?
A: Its value is “bind to HRF competitively with phage clones ph2 and ph4”.

Q: And the “inhibition of HRF-increased dopamine release” value (PC12 cells)?
A: The value was “about 60%”.
